Laboratory results reported in US20250064846A1, “TREATMENT AND PREVENTION OF TRIGEMINAL NEURALGIA” (THE JOHNS HOPKINS UNIVERSITY, priority 2022, published 2025).

Legend:
TRPA1 = molecular target: T1, TRPA1 (Homo sapiens, UniProt O75762); test: Calcium imaging of HEK293 cells transiently expressing WT TRPA1; type: cell-based; details: for calcium response of cells transfected with the vector backbone alone: 100 μM iodoacetamide, control vector; for calcium response of cells transfected with the vector backbone alone / calcium response of cells expressing WT TRPA1: 1 mM H2O2 or 100 μM 4-HNE; for EC50: concentration-Ca2+ response, HEK-293 cells transfected with WT TRPA1
T1 construct: expressed in transfected cells; host or cells: HEK293
Experimental: (§1) Calcium Imaging and Analysis Calcium imaging and analysis was performed as previously described (See Meixiong, J. et al. Elife 8, (2019)). Briefly, cells were imaged in calcium imaging buffer (CIB; 10 mM HEPES, 1.2 mM NaHCO3, 130 mM NaCl, 3 mM KCl, 2.5 mM CaCl2, 0.6 mM MgCl2, 20 mM glucose, and 20 mM sucrose at pH 7.4 and 290-300 mOsm). To monitor changes in intracellular [Ca^2+]([Ca^2+]i), cells were loaded with either 1 μM Fura 2-AM (HEK293 cells) or 1 μM Fluo 4-AM (trigeminal neurons) for 30 min in the dark at 37° C. in CIB just prior to imaging. With Fura 2-AM, emission at 510 nm was monitored following excitation at both 340 nm and 380 nm. With Fluo 4-AM, emission at 520 nm was monitored following excitation at 488 nm. Cells were identified as positively responding if [Ca^2+]i rose by 15% compared to baseline. Damaged, detached, high-baseline, and motion-activated cells were excluded from analysis.
(§2) HEK293 cells were plated on poly-D-lysine-coated coverslips and transiently transfected with the vector backbone or constructs encoding WT or mutant TRPA1. Unless otherwise noted, cells were imaged for 30 s to establish a baseline before compounds were added. Vehicle was first applied for 30 s, after which 100 μM iodoacetamide, 1 mM H2O2, or 100 μM 4-HNE was applied. CSF from cases and controls was diluted into calcium imaging buffer 1:50 prior to each trial. 50 μM of the non-selective TRP channel inhibitor ruthenium red was applied at the end of every imaging trial.

[1] = molecular target: T2, mutant TRPA1 (Cys621, Cys641, Cys665, Lys721) (Homo sapiens, UniProt O75762, C621S/C641S/C665S); test: Calcium imaging of HEK293 cells transiently expressing mutant TRPA1; type: cell-based; details: 100 μM iodoacetamide, 1 mM H2O2 or 100 μM 4-HNE
T2 construct: expressed in transfected cells; host or cells: HEK293
Experimental: as §1, §2
(§3) ROS directly activated TRPA1 by covalently bonding or modifying a network of cysteine and lysine residues within the channel. Extensive work by several groups has pinpointed a collection of key residues in TRPA1, including Cys421, Cys621, Cys641, Cys665, and Lys721. To test which residues among these sense H2O2 and 4-HNE, each was mutated individually and in various combinations (FIGS. 7A and 7B). Triply mutating cysteines Cys621, Cys641, Cys665 to serine rendered TRPA1 insensitive to both iodoacetamide and H2O2 (FIGS. 2D-2E). […] These four residues position TRPA1 as both a key sensor and transducer of oxidative stress.

NRF2 = test: NRF2/ARE Luciferase Reporter Assay (HEK293 stable cell line); type: cell-based, human; details: NRF2-dependent luciferase activity, cells treated for 6 hours; read-out: EC50 for stimulating NRF2
Experimental: NRF2/ARE Luciferase Reporter Assay NRF2 activity was monitored with a reporter cell line in which changes in NRF2 activity are coupled to the expression of firefly luciferase (NRF2/ARE Luciferase Reporter HEK293 Stable Cell Line). Luciferase activity was quantified with the Luciferase Assay System as per the manufacturer's instructions. Briefly, cells were plated at 125,000 cells/well in a 24-well plate. The following day, cells were treated with either vehicle or varying doses of sulforaphane, exemestane, or JQ-1 for 6 hours. Cells were then lysed in passive lysis buffer (Promega E1941) supplemented with protease inhibitors (Sigma). Lysates were then cleared at 16,000 g for 15 minutes at 4° C. 15 μL of each lysate was mixed with 5 μL of luciferase assay substrate (Promega). Total light was measured using a luminometer with a 10 second integration time with a delay of 2 seconds. Luciferase measurements were normalized to total protein and reported as normalized to the vehicle condition.

[2] = tested on: mutant TRPA1 (Cys621, Cys641, Cys665, Lys721); test: Calcium imaging of HEK293 cells transiently expressing mutant TRPA1; type: cell-based; details: 100 μM 4-HNE
Experimental: as §1, §2, §3

[3] = tested on: constrictive mouse model of trigeminal neuralgia; test: Mechanical allodynia (Von Frey filament) after constriction of the maxillary nerve; type: in vivo; details: WT mice, vs vehicle
Experimental: (§4) Constriction of the Maxillary Nerve Constriction of the maxillary division of trigeminal nerve was performed as previously described (See Benedetti, A., et al., Biochimica Et Biophysica Acta Bba—Lipids Lipid Metabolism 620, 281-296 (1980) and Vos, B., et al J Neurosci 14, 2708-2723 (1994)). The procedure was performed under direct visualization and control with a surgical microscope. Mice were first anesthetized with ketamine (100 mg/kg, i.p.) and xylazine (12.5 mg/kg, i.p.) and monitored by pinching the skin between the toes with forceps and monitoring for withdrawal. Mice were restrained with adhesive tape to a sterilized polystyrene board. Upon sufficient anesthesia, the scalp was shaved and an anterior to posterior skin incision was made at the midline to expose the nasal and maxillary bones. The maxillary nerve was exposed and carefully dissected free from the surrounding connective tissue. The distal end of the maxillary nerve was then loosely constricted using 8-0 silk sutures as a ligature. The sutures were tied using a slip knot followed by a normal knot, after which any remaining suture was cut free. The incision was then closed with a 4-0 silk suture. In the sham procedure, the left maxillary nerve was exposed but not constricted. Mice were monitored and rehydrated until fully recovered from anesthesia.
(§5) Pharmacologic Treatments Mice were dosed with either sulforaphane (10 mg/kg, i.p.), exemestane (10 mg/kg, i.p.), letrozole (10 mg/kg, i.p.), (+)-JQ-1 (40 mg/kg, i.p.), (−)-JQ-1 (40 mg/kg, i.p.), or ascorbate (100 mg/kg, i.p.) as indicated below. Mice were first dosed daily for two days before surgery and again daily just after behavior testing. For local exemestane treatment, exemestane (5 μL, 25 μg total) was applied directly to the maxillary nerve. Mice received a single dose during surgery. Mice were dosed with AM-0902 (30 mg/kg, p.o.). Mice were treated with AM-0902 were dosed 30 min prior to behavior testing. Mice were dosed with tamoxifen (75 mg/kg, i.p.). Mice were dosed once every 24 hrs over 5 consecutive days. Behavioral and molecular tests were only performed 7 or more days after the final tamoxifen injection.
Mechanical Allodynia Mechanical allodynia was assessed in C57BL/6J, TRPA1^+/+, TRPA1^−/−, Keap1(f/f), and Keap1(f/f/CMV-CreER mice using a Von Frey filament as previously outlined (See Benedetti, A., et al., Biochimica Et Biophysica Acta Bba—Lipids Lipid Metabolism 620, 281-296 (1980) and Vos, B., et al J Neurosci 14, 2708-2723 (1994)). Animals were placed individually in transparent plastic boxes and allowed to acclimate to the environment for at least 30 min before testing. After habituation, a 0.04 g force Von Frey filament was used to stimulate the territory innervated by the maxillary nerve, including the vibrissal skin pad. Each mouse's response to the filament was scored from 0-4 on the scale below. Each mouse was scored ten times per day. Changes in mechanical allodynia were considered relative to sham- or vehicle-treated animal controls. Behavior was assessed concomitantly or in a blocked manner with consideration for both genotype and treatment. • 0—no response • 1—non-defensive response to the stimulus (e.g., mouse non-defensively explores filament) • 2—withdrawal response (e.g., mouse turns head away from filament) • 3—escape/attack response (e.g., mouse moves body away from filament and assumes crouching position against the box wall; actively attacks filament by biting and/or grabbing) • 4—asymmetric face grooming (e.g., mouse wipes stimulated facial area in uninterrupted series of at least three face-wash strokes)

[4] = tested on: constrictive mouse model of trigeminal neuralgia; test: as above; type: in vivo; details: NRF2−/− mice; AM-0902 30 mg/kg, p.o., 30 min prior to behavior testing
[5] = tested on: constrictive mouse model of trigeminal neuralgia; test: Cold allodynia (ice-cold acetone) after constriction of the maxillary nerve; type: in vivo; details: NRF2−/− mice; AM-0902 30 mg/kg, p.o., 30 min prior to behavior testing
[6] = tested on: constrictive mouse model of trigeminal neuralgia; test: as above; type: in vivo; details: WT mice, vs vehicle
Experimental: as §4, §5
Cold Allodynia Cold allodynia was assessed in C57BL/6J, TRPA1^+/+, TRPA1^−/−, Keap1(f/f), and Keap1(f/f)/CMV-CreER mice using ice-cold acetone as previously outlined (See Yoon, C., et al., Pain 59, 369-376 (1994)). Animals were placed individually in transparent plastic boxes and allowed to acclimatize to the environment for at least 30 min before testing. After habituation, 20 μl of cold acetone was applied to the ligated vibrissal pad skin surface. Cold allodynia was measured as the average time spent wiping the region in a 60 s period, with a maximum of 5 seconds between bouts of wiping. Allodynia was measured three times with 10 min between intervals. Changes in cold allodynia were considered relative to sham- or vehicle-treated animal controls. Behavior was assessed concomitantly or in a blocked manner with consideration for both genotype and treatment.

[7] = AM-0902 30 mg/kg, p.o., 30 min prior to behavior testing
[8] = i.p. daily for two days before surgery and daily after behavior testing, sulforaphane, exemestane, letrozole 10 mg/kg, JQ-1 40 mg/kg, ascorbate 100 mg/kg

T2 sequence (O75762 whole entry C621S/C641S/C665S): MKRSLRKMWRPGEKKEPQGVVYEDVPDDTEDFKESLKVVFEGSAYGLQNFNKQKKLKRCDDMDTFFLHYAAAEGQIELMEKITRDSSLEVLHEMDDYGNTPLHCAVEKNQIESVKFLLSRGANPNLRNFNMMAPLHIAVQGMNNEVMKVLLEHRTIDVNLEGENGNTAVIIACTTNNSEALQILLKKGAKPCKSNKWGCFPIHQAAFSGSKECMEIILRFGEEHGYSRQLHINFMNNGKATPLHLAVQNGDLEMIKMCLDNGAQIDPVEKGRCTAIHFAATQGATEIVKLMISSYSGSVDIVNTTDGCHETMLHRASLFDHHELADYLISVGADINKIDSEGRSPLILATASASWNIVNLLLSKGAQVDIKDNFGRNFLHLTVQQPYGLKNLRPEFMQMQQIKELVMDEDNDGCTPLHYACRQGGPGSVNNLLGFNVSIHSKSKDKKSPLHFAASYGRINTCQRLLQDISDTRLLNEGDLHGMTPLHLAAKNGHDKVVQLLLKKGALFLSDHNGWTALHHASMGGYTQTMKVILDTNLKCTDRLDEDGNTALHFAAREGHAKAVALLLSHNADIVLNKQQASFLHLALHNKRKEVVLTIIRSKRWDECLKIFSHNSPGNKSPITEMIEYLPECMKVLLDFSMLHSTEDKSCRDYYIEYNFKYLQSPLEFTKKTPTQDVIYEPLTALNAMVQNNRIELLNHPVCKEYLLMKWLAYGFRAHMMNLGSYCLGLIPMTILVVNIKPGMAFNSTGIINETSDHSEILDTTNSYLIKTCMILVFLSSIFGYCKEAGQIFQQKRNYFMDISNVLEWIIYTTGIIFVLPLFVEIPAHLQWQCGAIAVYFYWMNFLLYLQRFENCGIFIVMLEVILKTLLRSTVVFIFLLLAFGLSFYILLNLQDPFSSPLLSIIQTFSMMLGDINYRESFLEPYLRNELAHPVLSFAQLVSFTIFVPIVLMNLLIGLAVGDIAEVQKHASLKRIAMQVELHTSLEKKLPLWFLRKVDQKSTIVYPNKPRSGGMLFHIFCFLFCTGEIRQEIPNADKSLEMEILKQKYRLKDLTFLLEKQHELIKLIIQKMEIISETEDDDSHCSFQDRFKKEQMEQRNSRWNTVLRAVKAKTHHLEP
T1 sequence (O75762 whole entry): as the sequence (O75762 whole entry C621S/C641S/C665S) above, with S621C, S641C, S665C counted along it

Row | Structure (SMILES) | calcium response of cells transfected with the vector backbone alone (TRPA1) | sensitivity of triple mutant TRPA1 (Cys621, Cys641, Cys665 to serine) [1] | EC50 (NRF2) [µM] | calcium response of cells expressing WT TRPA1 (TRPA1) | EC50 (TRPA1) [µM] | other results
1 | NC(=O)CI [iodoacetamide] | Neither iodoacetamide, H2O2, nor 4-HNE elicited a calcium response | insensitive |  |  |  | 
2 | CCCCCC(O)/C=C/C=O (stereo not shown) [4-HNE, 4-hydroxynonenal] | Neither iodoacetamide, H2O2, nor 4-HNE elicited a calcium response | still activated | 12 | activated cells expressing TRPA1 | 48 | sensitivity of triple cysteine mutant TRPA1 after also mutating Lys721 [2]: no longer sensitive
3 | Cn1cnc2ncn(Cc3nc(CCc4ccc(Cl)cc4)no3)c(=O)c21 [AM-0902, 1-({3-(2-(4-chlorophenyl)ethyl]-1,2,4-oxadiazol-5-yl}methyl)-7-methylpurin-6-one] |  |  |  |  |  | mechanical allodynia [3, 7]: reduced; mechanical allodynia [4]: lowered; cold allodynia [5]: lowered; cold allodynia [6, 7]: reduced
4 | N#Cc1ccc(C(c2ccc(C#N)cc2)n2cncn2)cc1 [letrozole] |  |  |  |  |  | mechanical allodynia (sensitivity to crude touch) [3, 8]: neither letrozole nor (−)-JQ-1 did; cold allodynia (ice-cold acetone) [6, 8]: neither letrozole nor (−)-JQ-1 did
5 | OO [H2O2] | Neither iodoacetamide, H2O2, nor 4-HNE elicited a calcium response | insensitive | 14 | activated cells expressing TRPA1 | 133 | 
